# Results: paper PMC6713104, “New peptide derived antimalaria and antimicrobial agents bearing sulphonamide moiety” (Journal of Enzyme Inhibition and Medicinal Chemistry, 2019)
# Read-outs that look alike come from different tables or passages of the source. Non-standard residues stand in square brackets, D forms with d. Residues, ends and D or L forms follow the SMILES beside them. ξ: configuration not given here. *: point of attachment. Tos = Cc1ccc(S(=O)(=O)*)cc1; NHPh = c1ccc(N*)cc1; ξA = CC(N)C(=O)O
# Legend:
# B. subtilis = assay: Antimicrobial MIC, agar cup diffusion; assay type: cell-based; details: for MIC: Bacillus subtilis, B. subtilis, read-out: MIC (minimum inhibitory concentration); for activity against Bacillus compared with ciprofloxacin: in words
# E. coli = assay: Antimicrobial MIC, agar cup diffusion; assay type: cell-based; details: Escherichia coli, read-out: MIC (minimum inhibitory concentration)
# S. typhi = assay: Antimicrobial MIC, agar cup diffusion; assay type: cell-based; details: Salmonella enterica, read-out: MIC (minimum inhibitory concentration)
# K. pneumoniae = assay: Antimicrobial MIC, agar cup diffusion; assay type: cell-based; details: Klebsiella pneumoniae, read-out: MIC (minimum inhibitory concentration)
# C. albicans = assay: Antimicrobial MIC, agar cup diffusion; assay type: cell-based; details: Candida albicans, read-out: MIC (minimum inhibitory concentration)
# P. falciparum strain W2 = assay: In vitro antimalarial assay; assay type: cell-based; details: Plasmodium falciparum, W2; P. falciparum, 48 h, >99% of parasites inhibited from developing to schizonts
# [1] = tested on: Plasmodium berghei infection in mice; assay: In vivo antimalaria test; details: P. berghei infected mice; for inhibition in vivo at 100 mg/kg / inhibition in vivo at 200 mg/kg: Plasmodium berghei, oral
# Method: Experimental Design and Treatment of Mice. Methods of Peter et al.[30] and Kalra et al.[31] for antiplasmodial assay against Plasmodium berghei infection in mice with some modifications were employed. About eighty infected mice were randomly divided into five groups, each having […] mice. The inoculum was prepared from a donor mouse with rising parasitemia of 60.42%. After 7 days of infection, animals begin to receive treatment (100 and 200 mg/kg b wt.) of the synthesized compounds (7a–7n) for 12 days with constant check of the percentage of parasitemia after a 4-day interval. Artemisinin (100 and 200 mg/kg body weight.) was given to the other mice in group three as positive control, group four was not treated and group five was not infected. All the compounds and the drugs were given orally by using a standard intragastric tube. For all parasitemia determination, blood samples were collected from tail snip of each mouse and thin smears prepared and stained with 10% Giemsa solution. The uniform fields of each stained slide (for each mouse) were examined under microscope with an oil immersion objective of 100X magnification power and average percent of parasitemia was determined.
# To determine the in vivo activity, the compounds were tested against P. berghei NK(65 Strain) infection mice., the animals were obtained from Nigeria institute for Trypanosoma and onchocercarioses Research (NTIR) Vom, Plateau State Nigeria. The permission and approval for the use of animals in this experiment were granted by the Animal Ethics Committee, Federal College of Vetrenary Medical Laboratory, Vom, Plateau State. Method of Peter et al.[30], for antiplasmodial assay against P. berghei in mice with some modification were employed. Artemisimin was used as treated control of the experiments. The percentage inhibition of parasite multiplication was calculated comparing the treated group with untreated group by means of the following formula[39] [(A − B)/A] × 100; where A = parasitaemia in the untreated group and B = parasitemia in the test group. […] Most of the compounds were active against P. berghei after 7 days post-infection by reducing the parasiteamia by at least 40% when in a dose of 100 mg/kg (Table 5). The inhibition of parasitaemia increased on 12th day post infection for almost all the compounds. […] However in consideration of the compounds ability to inhibit parasitaemia to the control drug. […] These compounds should be considered for further studies because of its promising activities.
# Liver function tests = assay type: in vivo; details: mice, 10 mg/kg
# From the text: (§1) Twenty-four hours before the injecting the compounds, the blood sample of five mice was taken and it was also taken after the last day of treatment, the animals were sacrificed by cervical dislocation and the blood samples were collected by heart puncture. The blood samples for haematological parameters (red blood cell (RBC) count, white blood cell (WBC) count, packed cell volume (PCV), and hemoglobin (HGB)) were collected into EDTA bottles and analyzed using an automated machine (Automated CBC Analyzer: Sysmex KX-21). The liver function tests carried out with the blood of the rats fed with the sulfonamide derivatives were aspartate aminotransperase (AST), alanine transaminase (ALT) and alkaline phosphatase (ALP). Standard laboratory procedure according to Reitman and Franke[32] was used for the determination of parameters.
# [2] = Renal or kidney function test; assay type: in vivo; details: mice, 10 mg/kg
# From the text: as §1, with “KX-21). Kidney” for “KX-21). The liver”, “derivatives were, creatinine” for “derivatives were aspartate aminotransperase (AST), alanine transaminase (ALT)”, “and albunim. The method reported by Kaplan” for “and alkaline phosphatase (ALP). Standard laboratory procedure according to Reitman”, “and Tengv[33]” for “and Franke[32]”, “used in” for “used for”, “of creatinine.” for “of parameters.”
# Haematological analysis = assay type: in vivo, mice
# From the text: Twenty-four hours before the injecting the compounds, the blood sample of five mice was taken and it was also taken after the last day of treatment, the animals were sacrificed by cervical dislocation and the blood samples were collected by heart puncture. The blood samples for haematological parameters (red blood cell (RBC) count, white blood cell (WBC) count, packed cell volume (PCV), and hemoglobin (HGB)) were collected into EDTA bottles and analyzed using an automated machine (Automated CBC Analyzer: Sysmex KX-21).
# The blood samples for haematological parameters (red blood cell (RBC) count, white blood cell (WBC) count, packed cell volume (PCV), and haemoglobin (HGB)) were collected into EDTA bottles and analyzed using an automated machine (Automated CBC Analyzer: Sysmex KX-21) (Table 8). From the analysis, even though there is a decrease in the value of RBC, PCV and HB, it is observed that there is no significant changes in the parameters that were analyzed for the control and the test compounds.
# A. niger = assay: Antimicrobial MIC, agar cup diffusion; assay type: cell-based; details: Aspergillus niger, read-out: MIC (minimum inhibitory concentration)
# [3] = 168 h, read-out: % inhibition 7 days post-treatment (100 mg/kg), day 7
# [4] = 168 h, read-out: % inhibition 7 days post-treatment (200 mg/kg), day 7
# [5] = 288 h, read-out: % inhibition 12 days post-treatment (100 mg/kg), day 12
# [6] = 288 h, read-out: % inhibition 12 days post-treatment (200 mg/kg), day 12
smiles,measurement,setting,value
"Cc1ccc(S(=O)(=O)NC(C)C(=O)NCC(=O)Nc2cccc(F)c2)cc1 (stereo not shown) [Compound 7j, N-(2-((3-fluorophenyl)amino)-2-oxoethyl)-2–(4-methylphenylsulfonamido)propanamide]",MIC,B. subtilis,245 µg/mL
same,MIC,E. coli,275 µg/mL
same,MIC,S. typhi,129 µg/mL
same,MIC,K. pneumoniae,83 µg/mL
same,MIC,C. albicans,371 µg/mL
same,MIC,P. falciparum strain W2,0.88 µM
same,ability to inhibit parasitaemia compared to the control drug,[1]; in words,almost the same or better activity compared to the artemisinin
same,inhibition in vivo at 100 mg/kg,[1]; [3],77.9%
same,inhibition in vivo at 200 mg/kg,[1]; [4],77.4%
same,inhibition in vivo at 100 mg/kg,[1]; [5],82.7%
same,inhibition in vivo at 200 mg/kg,[1]; [6],73.5%
same,ALT,Liver function tests; After,25.5 µ/L
same,AST,Liver function tests; After,60.0 µ/L
same,Bilirubin,Liver function tests; After,0.2 mg/dL
same,T.P.,Liver function tests; After,5.8 g/dL
same,ALT,Liver function tests; Before,26.3 µ/L
same,AST,Liver function tests; Before,65.0 µ/L
same,Bilirubin,Liver function tests; Before,0.4 mg/dL
same,T.P.,Liver function tests; Before,6.0 g/dL
same,Albumin,[2]; After,4.0 g/dL
same,Creatinine,[2]; After,0.3 mg/dL
same,Albumin,[2]; Before,3.9 g/dL
same,Creatinine,[2]; Before,0.4 mg/dL
same,HB,Haematological analysis; After treatment,10.0 g/dL
same,PCV,Haematological analysis; After treatment,34%
same,RBC,Haematological analysis; After treatment,6.5 × 10^6 mm^3
same,WBC,Haematological analysis; After treatment,9.1 × 10^3 mm^3
same,HB,Haematological analysis; Before treatment,13.5 g/dL
same,PCV,Haematological analysis; Before treatment,39%
same,RBC,Haematological analysis; Before treatment,7.1 × 10^6 mm^3
same,WBC,Haematological analysis; Before treatment,8.0 × 10^3 mm^3
"CC(NS(=O)(=O)c1ccccc1)C(=O)NCC(=O)Nc1cccc(Cl)c1 (stereo not shown) [Compound 7a, N-(2-((3-chlorophenyl)amino)-2-oxoethyl)-2-(phenylsulfonamido)propanamide]",MIC,B. subtilis,219 µg/mL
same,MIC,E. coli,489 µg/mL
same,MIC,S. typhi,199 µg/mL
same,MIC,K. pneumoniae,251 µg/mL
same,MIC,C. albicans,56.1 µg/mL
same,MIC,A. niger,1580 µg/mL
same,MIC,P. falciparum strain W2,0.37 µM
same,inhibition in vivo at 100 mg/kg,[1]; [3],36.2%
same,inhibition in vivo at 200 mg/kg,[1]; [4],52.1%
same,inhibition in vivo at 100 mg/kg,[1]; [5],50%
same,inhibition in vivo at 200 mg/kg,[1]; [6],61.4%
"Cc1ccc(S(=O)(=O)NC(C)C(=O)NCC(=O)Nc2ccccc2)cc1 (stereo not shown) [Compound 7m, 2–(4-methylphenylsulfonamido)-N-(2-oxo-2-(phenylamino)ethyl)propanamide] (Tos-[ξA]-Gly-NHPh)",MIC,B. subtilis,129 µg/mL
same,activity against Bacillus compared with ciprofloxacin,B. subtilis,greater activity against Bacillus than ciprofloxacin
same,MIC,E. coli,123 µg/mL
same,MIC,S. typhi,57 µg/mL
same,MIC,K. pneumoniae,138 µg/mL
same,MIC,C. albicans,7940 µg/mL
same,MIC,A. niger,56 µg/mL
same,MIC,P. falciparum strain W2,1.87 µM
same,inhibition in vivo at 100 mg/kg,[1]; [3],33.5%
same,inhibition in vivo at 200 mg/kg,[1]; [4],71.4%
same,inhibition in vivo at 100 mg/kg,[1]; [5],29.3%
same,inhibition in vivo at 200 mg/kg,[1]; [6],74%
"Cc1ccc(S(=O)(=O)NC(C)C(=O)NCC(=O)Nc2ccc(F)cc2)cc1 (stereo not shown) [Compound 7k, N-(2-((4-fluorophenyl)amino)-2-oxoethyl)-2–(4-methylphenylsulfonamido)propanamide]",MIC,B. subtilis,371 µg/mL
same,MIC,E. coli,316 µg/mL
same,MIC,S. typhi,3160 µg/mL
same,MIC,K. pneumoniae,79 µg/mL
same,MIC,C. albicans,63.1 µg/mL
same,MIC,A. niger,316 µg/mL
same,MIC,P. falciparum strain W2,0.53 µM
same,inhibition in vivo at 100 mg/kg,[1]; [3],40.4%
same,inhibition in vivo at 200 mg/kg,[1]; [4],54.9%
same,inhibition in vivo at 100 mg/kg,[1]; [5],44.3%
same,inhibition in vivo at 200 mg/kg,[1]; [6],56.4%
"OC(Cn1cncn1)(Cn1cncn1)c1ccc(F)cc1F [FLU, Fluconazole, reference compound]",MIC,C. albicans,21.7 µg/mL
same,MIC,A. niger,47.1 µg/mL
"CC(NS(=O)(=O)c1ccccc1)C(=O)NCC(=O)Nc1ccccc1 (stereo not shown) [Compound 7f, N-(2-oxo-2-(phenylamino)ethyl)-2-(phenylsulfonamido)propanamide]",MIC,B. subtilis,155 µg/mL
same,activity against Bacillus compared with ciprofloxacin,B. subtilis,greater activity against Bacillus than ciprofloxacin
same,MIC,E. coli,131 µg/mL
same,MIC,S. typhi,4680 µg/mL
same,MIC,K. pneumoniae,5010 µg/mL
same,MIC,C. albicans,214 µg/mL
same,MIC,A. niger,105 µg/mL
same,MIC,P. falciparum strain W2,2.32 µM
same,inhibition in vivo at 100 mg/kg,[1]; [3],38.2%
same,inhibition in vivo at 200 mg/kg,[1]; [4],71%
same,inhibition in vivo at 100 mg/kg,[1]; [5],41.9%
same,inhibition in vivo at 200 mg/kg,[1]; [6],73.3%
"C[C@@H]1CC[C@H]2[C@@H](C)C(=O)O[C@@H]3O[C@@]4(C)CC[C@@H]1[C@]32OO4 [Artemisinin, reference compound]",MIC,P. falciparum strain W2,0.72 µM
same,inhibition in vivo at 100 mg/kg,[1]; [3],75.7%
same,inhibition in vivo at 200 mg/kg,[1]; [4],78.9%
same,inhibition in vivo at 100 mg/kg,[1]; [5],86.2%
same,inhibition in vivo at 200 mg/kg,[1]; [6],82.3%
"O=C(O)c1cn(C2CC2)c2cc(N3CCNCC3)c(F)cc2c1=O [CIP, Ciprofloxacin, reference compound]",MIC,B. subtilis,184 µg/mL
same,MIC,E. coli,131 µg/mL
same,MIC,S. typhi,128 µg/mL
same,MIC,K. pneumoniae,113 µg/mL
